For assay [1], the target named is T1, His-tagged cysteine protease domain of C. difficile toxin B (Clostridioides difficile, UniProt P18177).
T1 construct: cysteine protease domain of C. difficile toxin B
Briefly: Comparison of cleavage kinetics in presence of 10 mM Ca2+. The settings on record: 37° C., FIG. 1B. It is filed as biochemical, Clostridium difficile. The procedure: The compound to be tested was added to the His-tagged cysteine protease domain of C. difficile toxin B (same sequence as given above) in presence of 10 mM Ca^2+ in 100 mM Tris pH 7.4 and incubated for 24 h at 37° C., with aliquots removed at regular intervals. Cleaved protein fragments were separated, visualized and analyzed as indicated above.

In assay [2] the target is T1, His-tagged cysteine protease domain of C. difficile toxin B. The assay can be described thus: Determination of EC50 in presence of 10 mM Ca2+ (cleavage of TcdB cysteine protease domain, SDS-PAGE). The settings on record: for cleavage activity at 100 μM: 100 μM compound, 10 mM Ca2+, FIG. 1A; for activity (cleavage of TcdB CPD) in the presence of calcium, compared with IP6: in the presence of calcium (10 mM Ca2+). It is filed as biochemical, Clostridium difficile. As for the experimental part: The compound to be tested was added to a recombinant His-tagged cysteine protease domain of C. difficile toxin B of SEQ ID 1 in presence of 10 mM Ca^2+ in 100 mM Tris pH7.4 and incubated for 2 h at 37° C. Cleaved protein fragments were separated by SDS-PAGE and visualized by Coomassie staining. The extent of cleavage quantified from protein band intensities using the ImageJ software package. Signals were normalized to cleavage of positive and negative controls.

T1 sequence (P18177 544-799 limits assumed): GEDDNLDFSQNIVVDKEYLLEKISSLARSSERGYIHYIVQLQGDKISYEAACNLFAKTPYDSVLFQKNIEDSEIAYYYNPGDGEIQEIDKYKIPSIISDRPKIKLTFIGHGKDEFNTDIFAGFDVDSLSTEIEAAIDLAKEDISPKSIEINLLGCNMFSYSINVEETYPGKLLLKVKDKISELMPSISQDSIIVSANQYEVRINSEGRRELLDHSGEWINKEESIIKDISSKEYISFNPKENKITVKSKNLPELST

For the molecule “myo-inositol-pentakisphosphate-2-PEG(400) [(7)]”, in assay [1], the “extent of cleavage after 4 h relative to IP6” value was determined as 5 fold. For the same molecule, in assay [2], the “cleavage activity at 100 μM” value is listed as “retains residual activity” and the “activity (cleavage of TcdB CPD) in the presence of calcium, compared with IP6” value is “improved ability to cleave TcdB CPD”. What is called EC50 is the midpoint of the concentration-response curve. Turning to `O=P(O)(O)O[C@H]1[C@H](OS(=O)(=O)O)[C@@H](OP(=O)(O)O)[C@H](OS(=O)(=O)O)[C@@H](OP(=O)(O)O)[C@H]1OS(=O)(=O)O` [PSPSPS], the EC50 in assay [2] worked out at 20 µM. With `O=P(O)(O)O[C@H]1[C@H](OP(=O)(O)O)[C@@H](OP(=O)(O)O)[C@H](OP(=O)(O)O)[C@@H](OP(=O)(O)O)[C@H]1OP(=O)(O)O` [IP6, myo-inositol hexakisphosphate, reference compound], in assay [2], the EC50 came to 601 µM and the “cleavage activity at 100 μM” value is reported as “disappears almost completely”.

Take `O=S(=O)(O)OC1C(OS(=O)(=O)O)C(OS(=O)(=O)O)C(OS(=O)(=O)O)C(OS(=O)(=O)O)C1OS(=O)(=O)O` (stereo not shown) [IS6, inositolhexakissulfate]: in assay [2], the “activity (cleavage of TcdB CPD) in the presence of calcium, compared with IP6” value is listed as “much more active than IP6”.

Values taken from US9358243B2, “Pharmaceutical compounds for use in the therapy of Clostridium difficile infection” (ETH Zurich, priority 2011, dated 2016).
